{"source": "patent US9044491B2", "about": "“Method for improving blood flow using stilbenoid derivatives” (The Board of Trustees of the University of Arkansas, priority 2010, dated 2015)", "key": {"CB1 receptors": {"tested_on": "CB1 receptors", "format": "biochemical, mouse", "settings": "10 μM compound, 30 min at 30° C."}, "[1]": {"tested_on": "cecal ligation and puncture model (CLP) of sepsis-induced renal injury", "assay": "Murine CLP model of sepsis, tRes 30 mg/kg (Example 5)", "format": "in vivo, mouse", "settings": "30 mg/kg i.p. 30 min prior to and 6 hr post CLP; 18 hr post CLP", "text": "Control (sham) mice underwent surgery but not CLP. Each treatment group contained 4-5 mice. Renal ONOO^− generation (rhodamine fluorescence) and renal peritubular capillary perfusion were quantified using intravital video microscopy (IVVM) on anesthetized mice in each of the treatment groups."}, "[2]": {"tested_on": "cecal ligation and puncture model (CLP)", "assay": "RNS generation in renal tubules after CLP (rhodamine IVVM, anti-nitrotyrosine staining)", "format": "in vivo, mouse", "settings": "for rhodamine fluorescence (RNS generation in renal tubules): 18 hours after CLP", "experimental": "The reactive nitrogen species peroxynitrite preferentially oxidizes DHR to fluorescent rhodamine that is visualized at 535 nm excitation and 590 nm emission. Still images exposed for 500 ms were captured from fields of view used to determine capillary perfusion. Fluorescence intensity was measured by ImageJ (National Institutes of Health, Bethesda, Md.) after first subtracting background fluorescence intensity. Representative images of fluorescence are shown in FIG. 10, panels (A)-(C), and the quantification of fluorescence is shown in FIG. 10 panel D. Data are expressed as arbitrary units/μg. CLP increased the generation of RNS in the renal tubules compared to Control (Sham). […] Antigens were unmasked using 10 mM citrate (pH 6.0) and 95° C. for 30 min. Gill's hematoxylin II was used as a counterstain. […] FIG. 12 (E)-(G) show nitrotyrosine staining. After CLP, nitrotyrosine was intense in renal tubules but not in glomeruli. Two doses of tRes blocked formation of nitrotyrosine adducts."}, "[3]": {"tested_on": "CLP or Control (Sham) mice", "assay": "Mean arterial pressure and heart rate by biotelemetry", "format": "in vivo, mouse", "experimental": "Mean arterial pressure (MAP) and heart rate (HR) were monitored continuously in conscious mice using biotelemetry. Transmitters (Data Sciences International, Minneapolis Minn.) were implanted into the carotid artery under isoflurane anesthesia and the animals were allowed to recover for 48 h. Mice were re-anesthetized with isoflurane and received CLP or Control (Sham) surgery. Cardiovascular parameters were recorded for 10 s every 5 min."}, "CLP mice [4]": {"tested_on": "CLP mice", "assay": "Systemic serum nitric oxide levels after CLP", "format": "in vivo, mouse", "settings": "CLP mice at 18 hours, two doses", "experimental": "Serum nitrate and […] were determined using the Total Nitric Oxide Assay Kit (Assay Designs, Ann Arbor, Mich.) as directed by the manufacturer. Data were expressed as serum nitrate+nitrate concentration in […]."}, "CLP mice [5]": {"tested_on": "CLP mice", "assay": "Serum creatinine and blood urea nitrogen after CLP", "format": "in vivo, mouse", "experimental": "Acute Kidney Injury (AKI) is accompanied by elevated blood urea nitrogen levels, elevated creatinine levels, and low blood pressure. Serum creatinine and blood urea nitrogen (BUN) were measured using the QuantiChrom® Creatinine Assay kit and Urea Assay Kit (BioAssay Systems, Hayward Calif.)."}, "CLP mice [6]": {"tested_on": "CLP mice", "assay": "Histology of renal tissue (PAS staining) after CLP", "format": "in vivo, mouse", "settings": "two-dose regimen", "text": "Renal tissue was also stained with periodic acid-Schiff staining to show the amount of injury to the tissue. The periodic acid-Schiff (PAS) stained sections were scored in a blinded, semi-quantitative manner. For each animal, at least 10 high power (400×) fields were examined. […] Representative PAS-stained sections are shown in FIG. 15, panels (A)-(C) 200× magnification and the tissue scores are shown in (D). CLP caused mild morphological changes characterized by […], cast formation, vacuolization, and tubule dilation. These changes were prevented by the two-dose regimen of tRes."}, "CLP mice [7]": {"tested_on": "CLP mice", "assay": "Survival study after CLP", "format": "in vivo, mouse", "settings": "10 mg/kg at 6, 12, and 18 hours following CLP, monitored for 48 h"}, "human UGT1A1": {"molecular_target": "T1, human UGT1A1 (Homo sapiens, UniProt P22309)", "T1 sequence (P22309 26-533)": "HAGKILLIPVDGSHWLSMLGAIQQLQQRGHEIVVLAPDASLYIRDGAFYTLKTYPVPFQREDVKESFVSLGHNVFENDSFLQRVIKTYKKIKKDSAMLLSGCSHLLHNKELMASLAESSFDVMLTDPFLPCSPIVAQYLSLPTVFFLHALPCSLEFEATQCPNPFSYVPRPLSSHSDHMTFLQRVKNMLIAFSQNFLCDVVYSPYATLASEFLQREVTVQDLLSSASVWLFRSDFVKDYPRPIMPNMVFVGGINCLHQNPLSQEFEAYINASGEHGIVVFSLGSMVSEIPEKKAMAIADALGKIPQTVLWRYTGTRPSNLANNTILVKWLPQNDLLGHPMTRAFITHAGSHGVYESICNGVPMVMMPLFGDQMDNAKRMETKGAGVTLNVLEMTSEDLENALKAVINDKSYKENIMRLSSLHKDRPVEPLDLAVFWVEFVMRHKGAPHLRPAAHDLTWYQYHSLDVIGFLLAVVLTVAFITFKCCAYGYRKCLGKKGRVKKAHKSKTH", "settings": "250 μM", "procedure": "(§1) Eight human recombinant UGT1A isoforms (UGT1A1, 1A3, 1A4, 1A6, 1A7, 1A8, 1A9, and 1A10; 5 μg) expressed as His-tag proteins in baculovirus-infected Sf9 insect cells and human liver microsomes (from one donor; HL2; 50 μg) and human intestinal microsomes (from two donors; HI36 and HI41; 50 μg) were evaluated for their ability to glucuronidate these four compounds. The concentrations of the substrate and co-substrate (i.e., UDP-GlcUA) were 250 μM and 4 mM, respectively. Glucuronidation products were analyzed by HPLC and LCMS/MS.\n(§2) The kinetic constants of the glucuronidation reactions using recombinant human UGT1A1 and UGT1A10 were determined by measuring the enzyme activity in the presence of increasing concentrations of substrate (see FIG. 2)."}, "human UGT1A10": {"molecular_target": "T2, human UGT1A10 (Homo sapiens, UniProt Q9HAW8)", "T2 sequence (Q9HAW8 26-530)": "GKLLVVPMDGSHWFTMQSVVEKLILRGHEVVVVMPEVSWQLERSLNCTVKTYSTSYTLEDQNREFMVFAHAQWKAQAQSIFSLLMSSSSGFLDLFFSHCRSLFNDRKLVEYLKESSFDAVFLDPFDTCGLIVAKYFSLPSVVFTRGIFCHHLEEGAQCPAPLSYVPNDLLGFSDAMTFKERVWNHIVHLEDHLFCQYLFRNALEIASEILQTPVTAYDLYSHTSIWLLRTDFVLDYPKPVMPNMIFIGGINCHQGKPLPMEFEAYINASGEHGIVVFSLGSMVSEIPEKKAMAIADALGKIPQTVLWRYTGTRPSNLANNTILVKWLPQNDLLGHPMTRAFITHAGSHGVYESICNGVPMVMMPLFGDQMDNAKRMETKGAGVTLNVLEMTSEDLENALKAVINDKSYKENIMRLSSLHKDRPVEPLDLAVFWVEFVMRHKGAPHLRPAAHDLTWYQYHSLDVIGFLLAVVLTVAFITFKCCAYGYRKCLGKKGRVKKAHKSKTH", "settings": "250 μM", "procedure": "as §1, §2"}, "[8]": {"settings": "CLP mice, 3, 10, or 30 mg/kg i.p. at 5.5 hours"}, "[9]": {"settings": "10 mg/kg administered 6 hours after CLP surgery, single dose"}}}
{"smiles": "Oc1ccc(/C=C/c2cc(O)cc(O)c2)cc1", "note": "[tRes, trans-resveratrol]", "values": [{"measurement": "basal G-protein activity", "setting": "CB1 receptors", "result": "little effect"}, {"measurement": "RNS generation in the kidney", "setting": "[1]", "result": "blocked"}, {"measurement": "renal capillary perfusion", "setting": "[1]", "result": "preserved"}, {"measurement": "rhodamine fluorescence (RNS generation in renal tubules)", "setting": "[2]; second dose at 12 hours", "result": "completely blocked"}, {"measurement": "rhodamine fluorescence (RNS generation in renal tubules)", "setting": "[2]; single dose at 6 hours", "result": "partially, but significantly reduced"}, {"measurement": "formation of nitrotyrosine adducts", "setting": "[2]; CLP, two doses", "result": "blocked"}, {"measurement": "heart rate (HR)", "setting": "[3]; [8]", "result": "no effect"}, {"measurement": "mean arterial pressure (MAP)", "setting": "[3]; [8]", "result": "no effect"}, {"measurement": "heart rate (HR)", "setting": "[3]; Control (Sham) mice", "result": "slightly increase"}, {"measurement": "serum nitrate+nitrate concentration", "setting": "CLP mice [4]", "result": "did not affect"}, {"measurement": "BUN levels", "setting": "CLP mice [5]; [9]", "result": "not"}, {"measurement": "serum creatinine levels", "setting": "CLP mice [5]; [9]", "result": "significantly reduced"}, {"measurement": "BUN levels", "setting": "CLP mice [5]; additional dose given at 12 h", "result": "significant reduction"}, {"measurement": "serum creatinine levels", "setting": "CLP mice [5]; additional dose given at 12 h", "result": "significant reduction"}, {"measurement": "CLP-induced morphological changes of renal tissue (PAS)", "setting": "CLP mice [6]", "result": "prevented"}, {"measurement": "survival in CLP mice", "setting": "CLP mice [7]", "result": "significantly improve survival"}, {"measurement": "glucuronide formation by UGT1A1", "setting": "human UGT1A1", "result": "glucuronidated to 3-O— and 4′-O-Glucs"}, {"measurement": "glucuronide formation by UGT1A10", "setting": "human UGT1A10", "result": "glucuronidated to 3-O— and 4′-O-Glucs"}]}
